Results taken from patent US10272056B2, “Treatment for mitochondrial diseases” (The George Washington University a Congressionally …, priority 2015, dated 2019).

Test system: ependymal cells of the choroid plexus
Experiment: In vivo mitochondrial mass of choroid plexus (SOD2 immunohistochemistry)
Design: species or system mice
Details: NaBt intraperitoneally in E12.5 pregnant dams, brains at E17.5, vs sham
Text: FIG. 8 is a schematic and image from microscopy showing that NaBt increases in vivo the mitochondrial mass of ependymal cells of the choroid plexus.
NaBt increases in vivo the mitochondrial mass of ependymal cells of the choroid plexus. NaBt's effect on mitochondrial mass of ependymal cells from the choroid plexus was investigated. It is a highly vascularized tissue lining the brain ventricles, which is responsible for producing and secreting the cerebral spinal fluid (CSF) and for supplying growth factors and key ions to the developing and mature brain ([…]). The secretory functions of the ependymal cells are highly dependent of mitochondria to ensure active transports of small ions, water and growth factors from the blood side to the CSF side. Impairment of mitochondrial functions in the choroid plexus has been documented in neurodegenerative diseases, such as Alzheimer's disease. To test the effect of NaBt in the choroid plexus of the murine developing brain, NaBt was injected intraperitoneally in E12.5 pregnant dams before dissected the brains at E17.5. Immunohistochemistry was performed on E17.5 sectioned brains to analyze the mitochondrial mass using an antibody against the mitochondrial marker SOD2.

SMILES: CCCC(=O)[O-].[Na+] [NaBt, sodium butyrate]
- mitochondrial mass of ependymal cells of the choroid plexus: substantial increase
